Test results reported in US12018016B2, “Aryl sulfonyl (hydroxy) piperidines as CCR6 inhibitors” (CHEMOCENTRYX, INC., priority 2021, dated 2024).

What follows are compounds tested against T1, human CCR6 (Homo sapiens, UniProt P51684) (assay: Migration assay (chemotaxis, ChemoTX)). Conditions: hCCR6-transfected Ba/F3 cells in human serum, migration to recombinant human CCL20 10 nM, 37° C. 45 minutes; read-out: Potency (IC50 value in the migration assay).
T1 construct: expressed in transfected cells; host or cells: Ba/F3 cells (mouse pro-B line)
T1 sequence (P51684 1-374): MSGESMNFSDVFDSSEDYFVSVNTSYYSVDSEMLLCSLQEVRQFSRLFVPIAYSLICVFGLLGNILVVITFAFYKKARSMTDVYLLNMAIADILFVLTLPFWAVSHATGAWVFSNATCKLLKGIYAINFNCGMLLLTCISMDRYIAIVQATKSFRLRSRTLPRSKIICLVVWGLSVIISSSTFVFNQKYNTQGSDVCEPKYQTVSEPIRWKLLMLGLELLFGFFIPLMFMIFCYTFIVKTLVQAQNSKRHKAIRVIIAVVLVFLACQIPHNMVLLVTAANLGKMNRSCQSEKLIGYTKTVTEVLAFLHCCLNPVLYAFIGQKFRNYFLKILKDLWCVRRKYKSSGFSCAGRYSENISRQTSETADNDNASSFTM
Format: cell-based
Excerpt: A chemotaxis assay can be used to determine the efficacy of potential receptor antagonists at blocking the migration mediated through chemokine receptors, such as CCR6. This assay is routinely performed using the ChemoTX® microchamber system with a 5-μm pore-sized polycarbonate membrane. Chemokine receptor-expressing cells are required for such an assay. In this case, Ba/F3 cells (Palacios et al., Nature, 309:126, 1984) transfected with the gene for human CCR6 under control of the CMV promotor were used. To begin such an assay, hCCR6-transfected Ba/F3 cells are first grown for 24 hr in medium supplemented with sodium butyrate, which increases CCR6 transcription via the CMV promotor. The prepared Ba/F3 cells, are collected by centrifugation at 400×g at room temperature, then suspended at 4 million/ml in human serum. The compound being tested is serially diluted from a maximum final concentration of 1 μM (or an equivalent volume of its solvent (DMSO)) and is then added to the cell/serum mixture. Separately, recombinant human CCL20 (MIP-3α/LARC) at its EC50 concentration (10 nM) is placed in the lower wells of the ChemoTX® plate. The 5-μm (pore size) polycarbonate membrane is placed onto the plate, and 20 μL of the cell/compound mixture is transferred onto each well of the membrane. The plates are incubated at 37° C. for 45 minutes, after which the polycarbonate membranes are removed and 5 μl of the DNA-intercalating dye CyQUANT (Invitrogen, Carlsbad, CA) is added to the lower wells. The amount of fluorescence, corresponding to the number of migrated cells, is measured using a Spectrafluor Plus plate reader (TECAN, San Jose, CA).

IC50	Compound
< 1 nM	COc1c(-c2ccc(S(=O)(=O)N3CC[C@@H](Nc4ccc(C(F)(F)F)cn4)[C@@H](O)C3)cc2)cnc2[nH]ccc12 [Example 58, (3S,4R)-1-((4-(4-methoxy-1H-pyrrolo[2,3-b]pyridin-5-yl)phenyl)sulfonyl)-4-((5-(trifluoromethyl)pyridin-2-yl)amino)piperidin-3-ol]
< 1 nM	O=S(=O)(c1ccc(-c2ccc(N3CC4(COC4)C3)nc2)cc1)N1CC[C@@H](Nc2ccc(C(F)(F)F)cn2)[C@@H](O)C1 [Compound 93]
< 1 nM	Nc1n[nH]c2ccc(-c3ccc(S(=O)(=O)N4CC[C@@H](Nc5ccc(C(F)(F)F)cn5)[C@@H](O)C4)cc3)cc12 [Example 1, (3S,4R)-1-((4-(3-amino-1H-indazol-5-yl)phenyl)sulfonyl)-4-((5-(trifluoromethyl)pyridin-2-yl)amino)piperidin-3-ol]
< 1 nM	Cc1ccnc(C)c1-c1ccc(S(=O)(=O)N2CC[C@@H](Nc3ccc(C(F)(F)F)cn3)[C@@H](O)C2)cc1 [Compound 116]
< 1 nM	CC(C)(C)OC(=O)NCCn1cc(C#N)c2cc(-c3ccc(S(=O)(=O)N4CC[C@@H](Nc5ccc(C(F)(F)F)cn5)[C@@H](O)C4)cc3)cnc21 [Example 29, tert-Butyl (2-(3-cyano-5-(4-(((3S,4R)-3-hydroxy-4-((5-(trifluoromethyl)pyridin-2-yl)amino)piperidin-1-yl)sulfonyl)phenyl)-1H-pyrrolo[2,3-b]pyridin-1-yl)ethyl)carbamate]
1 to 10 nM	O=S(=O)(c1ccc(-c2ccncc2CO)cc1)N1CC[C@@H](Nc2ccc(C(F)(F)F)cn2)[C@@H](O)C1 [Compound 153]
< 1 nM	Cc1c(C(N)=O)cncc1-c1ccc(S(=O)(=O)N2CC[C@@H](Nc3ccc(C(F)(F)F)cn3)[C@@H](O)C2)cc1 [Compound 184]
10 to 1000 nM	O=C(O)c1cc(-c2ccc(S(=O)(=O)N3CC[C@@H](Nc4ccc(C(F)(F)F)cn4)[C@@H](O)C3)cc2)ccn1 [Compound 208]
< 1 nM	Cc1nc2[nH]cc(C#N)c2cc1-c1ccc(S(=O)(=O)N2CC[C@@H](Nc3ccc(C(F)(F)F)cn3)[C@@H](O)C2)cc1 [Example 46, 5-(4-(((3S,4R)-3-hydroxy-4-((5-(trifluoromethyl)pyridin-2-yl)amino)piperidin-1-yl)sulfonyl)phenyl)-6-methyl-1H-pyrrolo[2,3-b]pyridine-3-carbonitrile]
< 1 nM	Cc1cc(-c2ccc(S(=O)(=O)N3CC[C@@H](Nc4ccc(C(F)(F)F)cn4)[C@@H](O)C3)cc2)cc(C(N)=O)n1 [Compound 206]
1 to 10 nM	CN(C)C1CN(c2ccc(-c3ccc(S(=O)(=O)N4CC[C@@H](Nc5ccc(C(F)(F)F)cn5)[C@@H](O)C4)cc3)cn2)C1 [Compound 107]
1 to 10 nM	N#Cc1c[nH]c2ncc(-c3ccc(S(=O)(=O)N4CC[C@H](Nc5ccc(C(F)(F)F)cn5)[C@H](O)C4)cc3)cc12 [Example 32, 5-(4-(((3R,4S)-3-hydroxy-4-((5-(trifluoromethyl)pyridin-2-yl)amino)piperidin-1-yl)sulfonyl)phenyl)-1H-pyrrolo[2,3-b]pyridine-3-carbonitrile]
< 1 nM	O=S(=O)(c1ccc(-c2cnc3[nH]ccc3c2Cl)cc1)N1CC[C@@H](Nc2ccc(C(F)(F)F)cn2)[C@@H](O)C1 [Compound 209]
1 to 10 nM	O=S(=O)(c1ccc(-c2cncc(N3CCNCC3)c2)cc1)N1CC[C@@H](Nc2ccc(C(F)(F)F)cn2)[C@@H](O)C1 [Compound 76, (3S,4R)-1-((4-(5-(piperazin-1-yl)pyridin-3-yl)phenyl)sulfonyl)-4-((5-(trifluoromethyl)pyridin-2-yl)amino)piperidin-3-ol]
1 to 10 nM	COC1CN(c2ccc(-c3ccc(S(=O)(=O)N4CC[C@@H](Nc5ccc(C(F)(F)F)cn5)[C@@H](O)C4)cc3)cn2)C1 [Compound 95]
< 1 nM	COc1c(-c2ccc(S(=O)(=O)N3CC[C@@H](Nc4ccc(C(F)(F)F)cn4)[C@@H](O)C3)cc2)ccnc1C(N)=O [Compound 182]
< 1 nM	Cc1cncc(C)c1-c1ccc(S(=O)(=O)N2CC[C@@H](Nc3ccc(C(F)(F)F)cn3)[C@@H](O)C2)cc1 [Compound 185]
< 1 nM	Cc1cc(C(N)=O)ncc1-c1ccc(S(=O)(=O)N2CC[C@@H](Nc3ccc(C(F)(F)F)cn3)[C@@H](O)C2)cc1 [Compound 147]
< 1 nM	CNC(=O)N1Cc2ccc(-c3ccc(S(=O)(=O)N4CC[C@@H](Nc5ccc(C(F)(F)F)cn5)[C@@H](O)C4)cc3)cc2C1 [Compound 187]
< 1 nM	O=S(=O)(c1ccc(-c2ccnc(N3CCCCC3)c2)cc1)N1CC[C@@H](Nc2ccc(C(F)(F)F)cn2)[C@@H](O)C1 [Compound 145]
< 1 nM	NC(=O)c1cc(-c2ccc(S(=O)(=O)N3CC[C@@H](Nc4ccc(C(F)(F)F)cn4)[C@@H](O)C3)cc2)cnc1O [Example 51, 2-Hydroxy-5-(4-(((3S,4R)-3-hydroxy-4-((5-(trifluoromethyl)pyridin-2-yl)amino)piperidin-1-yl)sulfonyl)phenyl)nicotinamide]
< 1 nM	Cc1c(-c2ccc(S(=O)(=O)N3CC[C@@H](Nc4ccc(C(F)(F)F)cn4)[C@@H](O)C3)cc2)ccnc1N [Compound 166]

More lines, now with the values behind:

Compound	IC50
O=S(=O)(c1ccc(-c2ccncc2)cc1)N1CC[C@@H](Nc2ccc(C(F)(F)F)cn2)[C@@H](O)C1 [Compound 161]	< 1 nM
O=S(=O)(c1ccc(-c2ccc(N3CCC3)nc2)cc1)N1CC[C@@H](Nc2ccc(C(F)(F)F)cn2)[C@@H](O)C1 [Compound 100]	< 1 nM
NC(=O)c1cccc(-c2ccc(S(=O)(=O)N3CC[C@@H](Nc4ccc(C(F)(F)F)cn4)[C@@H](O)C3)cc2)c1 [Compound 117]	< 1 nM
Cc1cc(C(F)(F)F)cnc1N[C@@H]1CCN(S(=O)(=O)c2ccc(-c3cnc4[nH]cc(C#N)c4c3)cc2)C[C@@H]1O [Compound 192]	< 1 nM
COc1cnccc1-c1ccc(S(=O)(=O)N2CC[C@@H](Nc3ccc(C(F)(F)F)cn3)[C@@H](O)C2)cc1 [Compound 151]	1 to 10 nM
COc1c(-c2ccc(S(=O)(=O)N3CC[C@@H](Nc4ccc(C(F)(F)F)cn4)[C@@H](O)C3)cc2)ccnc1C [Compound 157]	< 1 nM
O=S(=O)(c1ccc(-c2ccc(N3CC(O)C3)nc2)cc1)N1CC[C@@H](Nc2ccc(C(F)(F)F)cn2)[C@@H](O)C1 [Compound 174]	< 1 nM
Cc1cnc(CO)c(C)c1-c1ccc(S(=O)(=O)N2CC[C@@H](Nc3ccc(C(F)(F)F)cn3)[C@@H](O)C2)cc1 [Compound 205]	1 to 10 nM
O=S(=O)(c1ccc(-c2ccc(N3CCNCC3)nc2)cc1)N1CC[C@@H](Nc2ccc(C(F)(F)F)cn2)[C@@H](O)C1 [Compound 114]	1 to 10 nM
O=S(=O)(c1ccc(-c2ccc(N3CC[C@@H](O)C3)nc2)cc1)N1CC[C@@H](Nc2ccc(C(F)(F)F)cn2)[C@@H](O)C1 [Compound 176]	< 1 nM
O=C(NCCO)c1cc(-c2ccc(S(=O)(=O)N3CC[C@@H](Nc4ccc(C(F)(F)F)cn4)[C@@H](O)C3)cc2)ccn1 [Example 41]	< 1 nM
NC(=O)c1cc(-c2ccc(S(=O)(=O)N3CC[C@@H](Nc4ccc(C(F)(F)F)cn4)[C@@H](O)C3)cc2)n[nH]1 [Compound 73, 3-(4-(((3S,4R)-3-hydroxy-4-((5-(trifluoromethyl)pyridin-2-yl)amino)piperidin-1-yl)sulfonyl)phenyl)-1H-pyrazole-5-carboxamide]	1 to 10 nM
Cc1cc(-c2ccc(S(=O)(=O)N3CC[C@@H](Nc4ccc(C(F)(F)F)cn4)[C@@H](O)C3)cc2)cc2c(C#N)n[nH]c12 [Example 43, 5-(4-(((3S,4R)-3-hydroxy-4-((5-(trifluoromethyl)pyridin-2-yl)amino)piperidin-1-yl)sulfonyl)phenyl)-7-methyl-1H-indazole-3-carbonitrile]	< 1 nM
O=C1NCc2cc(-c3ccc(S(=O)(=O)N4CC[C@@H](Nc5ccc(C(F)(F)F)cn5)[C@@H](O)C4)cc3)ccc21 [Example 12, 5-(4-(((3S,4R)-3-hydroxy-4-((5-(trifluoromethyl)pyridin-2-yl)amino)piperidin-1-yl)sulfonyl)phenyl)isoindolin-1-one]	< 1 nM
COc1nccc(-c2ccc(S(=O)(=O)N3CC[C@@H](Nc4ccc(C(F)(F)F)cn4)[C@@H](O)C3)cc2)c1OC [Compound 150]	< 1 nM
CN(C)C1CN(c2cc(-c3ccc(S(=O)(=O)N4CC[C@@H](Nc5ccc(C(F)(F)F)cn5)[C@@H](O)C4)cc3)ccn2)C1 [Compound 177]	1 to 10 nM
CC(C)(O)C1CN(c2cc(-c3ccc(S(=O)(=O)N4CC[C@@H](Nc5ccc(C(F)(F)F)cn5)[C@@H](O)C4)cc3)ccn2)C1 [Compound 132]	< 1 nM
